pIC50: −log10 of the molar value.
How the values were obtained:
[1] = target: Proto-oncogene tyrosine-protein kinase Src (Homo sapiens, UniProt P12931); test: Inhibition of Src tyrosine kinase
[2] = Inhibitory activity against phosphorylase kinase was determined
[3] = target: cAMP-dependent protein kinase (PKA) (Homo sapiens, UniProt P22694+P17612+P22612)
Description: Inhibitory activity against cAMP-dependent protein kinase A was determined

[4] = Inhibition of Ribosomal protein S6 kinase
[5] = target: Epidermal growth factor receptor (Homo sapiens, UniProt P00533)
Sequence of Epidermal growth factor receptor (P00533 whole entry): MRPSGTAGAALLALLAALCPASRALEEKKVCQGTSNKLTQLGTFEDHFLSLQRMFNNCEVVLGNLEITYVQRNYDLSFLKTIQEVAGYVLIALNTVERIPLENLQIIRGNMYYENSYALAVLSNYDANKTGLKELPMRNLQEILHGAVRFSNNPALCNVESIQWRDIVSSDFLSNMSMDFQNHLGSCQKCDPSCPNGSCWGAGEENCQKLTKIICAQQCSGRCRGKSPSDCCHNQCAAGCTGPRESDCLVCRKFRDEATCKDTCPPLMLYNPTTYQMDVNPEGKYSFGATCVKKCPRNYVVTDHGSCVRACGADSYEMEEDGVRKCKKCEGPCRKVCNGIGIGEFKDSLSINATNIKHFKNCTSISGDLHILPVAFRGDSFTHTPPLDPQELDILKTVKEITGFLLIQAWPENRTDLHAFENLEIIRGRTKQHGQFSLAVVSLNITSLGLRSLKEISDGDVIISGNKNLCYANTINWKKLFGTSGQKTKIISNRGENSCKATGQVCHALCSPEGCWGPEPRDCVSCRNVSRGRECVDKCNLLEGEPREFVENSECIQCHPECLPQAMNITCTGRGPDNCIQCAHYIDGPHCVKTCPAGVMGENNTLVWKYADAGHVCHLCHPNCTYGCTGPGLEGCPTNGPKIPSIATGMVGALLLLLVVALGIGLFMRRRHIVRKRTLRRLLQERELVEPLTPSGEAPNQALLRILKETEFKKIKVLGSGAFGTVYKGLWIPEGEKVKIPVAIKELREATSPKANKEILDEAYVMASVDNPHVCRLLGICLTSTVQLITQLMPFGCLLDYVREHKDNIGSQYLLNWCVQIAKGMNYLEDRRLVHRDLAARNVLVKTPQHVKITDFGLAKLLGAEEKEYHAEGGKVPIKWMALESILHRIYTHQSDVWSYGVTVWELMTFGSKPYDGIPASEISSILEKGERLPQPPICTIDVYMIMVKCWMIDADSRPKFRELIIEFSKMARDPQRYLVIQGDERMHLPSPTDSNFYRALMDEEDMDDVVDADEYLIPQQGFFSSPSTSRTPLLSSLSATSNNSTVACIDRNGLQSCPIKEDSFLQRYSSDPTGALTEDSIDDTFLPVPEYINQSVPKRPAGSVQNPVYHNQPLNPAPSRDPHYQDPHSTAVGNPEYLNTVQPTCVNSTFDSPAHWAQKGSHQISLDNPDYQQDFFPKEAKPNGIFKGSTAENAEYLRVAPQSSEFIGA
Description: Inhibitory activity against protein tyrosine kinase of Epidermal growth factor receptor was determined

Sequence of Proto-oncogene tyrosine-protein kinase Src (P12931 2-536 limits assumed): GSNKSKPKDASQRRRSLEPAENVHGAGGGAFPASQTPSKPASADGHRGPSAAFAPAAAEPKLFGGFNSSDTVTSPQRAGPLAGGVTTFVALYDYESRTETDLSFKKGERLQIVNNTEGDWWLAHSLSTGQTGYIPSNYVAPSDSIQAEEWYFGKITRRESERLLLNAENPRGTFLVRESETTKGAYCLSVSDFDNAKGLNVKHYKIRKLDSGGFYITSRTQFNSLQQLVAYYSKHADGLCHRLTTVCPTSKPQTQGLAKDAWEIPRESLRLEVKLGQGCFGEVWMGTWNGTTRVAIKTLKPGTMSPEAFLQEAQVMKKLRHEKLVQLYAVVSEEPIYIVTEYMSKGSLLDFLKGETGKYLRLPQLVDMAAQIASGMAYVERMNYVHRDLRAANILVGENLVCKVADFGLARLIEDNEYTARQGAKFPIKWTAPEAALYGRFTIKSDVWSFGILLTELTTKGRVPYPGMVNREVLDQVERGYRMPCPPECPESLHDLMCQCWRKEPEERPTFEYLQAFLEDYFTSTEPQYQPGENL

Row | SMILES | pIC50 [1] | pIC50 [2] | IC50 [3] | pIC50 [4] | pIC50 [5]
1 | CCN(C)[C@H]1C[C@@H]2O[C@](C)([C@H]1OC)n1c3ccccc3c3c4c(c5c6ccccc6n2c5c31)C(=O)NC4 | 6.62 | 7.15 | 1.6 µM |  | 
2 | COC(=O)N(C)[C@H]1C[C@@H]2O[C@](C)([C@H]1OC)n1c3ccccc3c3c4c(c5c6ccccc6n2c5c31)C(=O)NC4 |  | 7.40 | 0.48 µM |  | 
3 | CO[C@H]1[C@@H](N(C)C(C)=O)C[C@@H]2O[C@@]1(C)n1c3ccccc3c3c4c(c5c6ccccc6n2c5c31)C(=O)NC4 |  | 8.00 | 1.5 µM |  | 
4 | CN[C@H]1C[C@@H]2O[C@](C)([C@H]1OC)n1c3ccccc3c3c4c(c5c6ccccc6n2c5c31)[C@@H](O)NC4=O |  | 6.77 | 3.3 µM |  | 
5 | CO[C@H]1[C@@H](N(C)C(=O)c2cccc([N+](=O)[O-])c2)C[C@@H]2O[C@@]1(C)n1c3ccccc3c3c4c(c5c6ccccc6n2c5c31)C(=O)NC4 |  | 7.22 | 2.5 µM | 7.00 | 
6 | CO[C@H]1[C@@H](N(C)S(C)(=O)=O)C[C@@H]2O[C@@]1(C)n1c3ccccc3c3c4c(c5c6ccccc6n2c5c31)C(=O)NC4 |  | 7.72 | 1 µM |  | 
7 | CO[C@H]1[C@@H](N(C)Cc2ccccc2)C[C@@H]2O[C@@]1(C)n1c3ccccc3c3c4c(c5c6ccccc6n2c5c31)C(=O)NC4 |  | 7.00 | 0.48 µM |  | 
8 | CO[C@H]1[C@@H](N(C)CCC#N)C[C@@H]2O[C@@]1(C)n1c3ccccc3c3c4c(c5c6ccccc6n2c5c31)C(=O)NC4 |  | 7.62 | 1.4 µM |  | 
9 | COC(=O)CN1Cc2c(c3c4ccccc4n4c3c3c2c2ccccc2n3[C@]2(C)O[C@H]4C[C@H](N(C)C(=O)c3ccccc3)[C@@H]2OC)C1=O |  | ~4.00 | > 100 µM | < 4.00 | 
10 | CO[C@H]1[C@@H](N(C)C(=O)c2ccccc2Cl)C[C@@H]2O[C@@]1(C)n1c3ccccc3c3c4c(c5c6ccccc6n2c5c31)C(=O)NC4 |  | 7.11 | 1.5 µM |  | 
11 | CO[C@H]1[C@@H](N(C)C(=O)c2ccc(Cl)cc2)C[C@@H]2O[C@@]1(C)n1c3ccccc3c3c4c(c5c6ccccc6n2c5c31)C(=O)NC4 |  | 6.49 | 2.6 µM |  | 
12 | COc1ccc(C(=O)N(C)[C@H]2C[C@@H]3O[C@](C)([C@H]2OC)n2c4ccccc4c4c5c(c6c7ccccc7n3c6c42)C(=O)NC5)cc1 |  | 6.89 | 1.5 µM |  | 
13 | CO[C@H]1[C@@H](N(C)C(=O)c2cc([N+](=O)[O-])cc([N+](=O)[O-])c2)C[C@@H]2O[C@@]1(C)n1c3ccccc3c3c4c(c5c6ccccc6n2c5c31)C(=O)NC4 |  | 6.43 | > 100 µM | 6.70 | 
14 | CO[C@H]1[C@@H](N(C)CC(=O)O)C[C@@H]2O[C@@]1(C)n1c3ccccc3c3c4c(c5c6ccccc6n2c5c31)C(=O)NC4 |  | 7.82 | 0.14 µM |  | 
15 | CO[C@H]1[C@@H](N(C)C(=O)c2cccnc2)C[C@@H]2O[C@@]1(C)n1c3ccccc3c3c4c(c5c6ccccc6n2c5c31)C(=O)NC4 |  | 7.92 | 0.38 µM |  | 
16 | CO[C@H]1[C@@H](N(C)C(=O)c2ccccc2)C[C@@H]2O[C@@]1(C)n1c3ccccc3c3c4c(c5c6ccccc6n2c5c31)C(=O)NC4=O |  | 6.57 | 0.75 µM |  | 
17 | CO[C@H]1[C@@H]([N+](C)(C)C)C[C@@H]2O[C@@]1(C)n1c3ccccc3c3c4c(c5c6ccccc6n2c5c31)C(=O)NC4 |  | 7.68 | 0.068 µM | 7.30 | 
18 | CCCCC(O)CN(C)[C@H]1C[C@@H]2O[C@](C)([C@H]1OC)n1c3ccccc3c3c4c(c5c6ccccc6n2c5c31)C(=O)NC4 (some centres not stated) |  | 7.30 | 0.36 µM |  | 
19 | CO[C@H]1[C@@H](N(C)C(=O)CNC(=O)OC(C)(C)C)C[C@@H]2O[C@@]1(C)n1c3ccccc3c3c4c(c5c6ccccc6n2c5c31)C(=O)NC4 | 6.80 | 6.92 | 2.25 µM | 6.70 | 
20 | CO[C@H]1[C@@H](N(C)C(=O)C(F)(F)F)C[C@@H]2O[C@@]1(C)n1c3ccccc3c3c4c(c5c6ccccc6n2c5c31)C(=O)NC4 |  | 8.00 | 17 µM | 7.00 | 

Row | SMILES | pIC50 [1] | pIC50 [2] | IC50 [3] | pIC50 [4] | pIC50 [5]
21 | COC(=O)c1ccc(C(=O)N(C)[C@H]2C[C@@H]3O[C@](C)([C@H]2OC)n2c4ccccc4c4c5c(c6c7ccccc7n3c6c42)C(=O)NC5)cc1 |  | 7.28 | 3.67 µM |  | 
22 | CN[C@H]1C[C@@H]2O[C@](C)([C@H]1OC)n1c3ccccc3c3c4c(c5c6ccccc6n2c5c31)C(=O)NC4=O | 6.10 | 8.30 | 0.026 µM |  | 
23 | CO[C@H]1[C@@H](N(C)C(=O)CCC(=O)O)C[C@@H]2O[C@@]1(C)n1c3ccccc3c3c4c(c5c6ccccc6n2c5c31)C(=O)NC4 | 6.70 | 7.21 | 0.7 µM |  | 
24 | CNC(=S)N(C)[C@H]1C[C@@H]2O[C@](C)([C@H]1OC)n1c3ccccc3c3c4c(c5c6ccccc6n2c5c31)C(=O)NC4 |  | 8.00 | 1.6 µM | 6.05 | 4.90
25 | CO[C@H]1[C@@H](N(C)C(=O)c2cnccn2)C[C@@H]2O[C@@]1(C)n1c3ccccc3c3c4c(c5c6ccccc6n2c5c31)C(=O)NC4 |  | 7.70 | 0.75 µM |  | 5.09
26 | CN[C@H]1C[C@@H]2O[C@](C)([C@H]1OC)n1c3ccccc3c3c4c(c5c6ccccc6n2c5c31)C(=O)N[C@@H]4O |  | 8.40 |  |  | 
27 | CN[C@H]1C[C@@H]2O[C@](C)([C@H]1OC)n1c3ccccc3c3c4c(c5c6ccccc6n2c5c31)[C@H](O)NC4=O |  | 7.66 | 2.25 µM |  | 
28 | CO[C@H]1[C@@H](N(C)C(=O)c2ccccc2)C[C@@H]2O[C@@]1(C)n1c3ccccc3c3c4c(c5c6ccccc6n2c5c31)C(=O)NC4 |  | 7.32 |  |  | 
29 | CO[C@H]1[C@@H](N(C)C(=O)OC(C)(C)C)C[C@@H]2O[C@@]1(C)n1c3ccccc3c3c4c(c5c6ccccc6n2c5c31)C(=O)NC4 |  | 6.38 | 28 µM | 6.00 | 
30 | CO[C@H]1[C@@H](N(C)C(=O)CN)C[C@@H]2O[C@@]1(C)n1c3ccccc3c3c4c(c5c6ccccc6n2c5c31)C(=O)NC4 |  | 7.29 | 0.36 µM |  | 
31 | CO[C@H]1[C@@H](N(C)C(=O)c2cccc(Cl)c2)C[C@@H]2O[C@@]1(C)n1c3ccccc3c3c4c(c5c6ccccc6n2c5c31)C(=O)NC4 |  | 5.72 | 6.8 µM |  | 
32 | CO[C@H]1[C@@H](N(C)C(=O)c2ccccc2)C[C@@H]2O[C@@]1(C)n1c3ccccc3c3c4c(c5c6ccccc6n2c5c31)C(=O)N[C@@H]4O |  | 7.46 |  |  | 
33 | CO[C@H]1[C@@H](N(C)C(=O)C2CCCCC2)C[C@@H]2O[C@@]1(C)n1c3ccccc3c3c4c(c5c6ccccc6n2c5c31)C(=O)NC4 |  | 7.10 | 1.57 µM |  | 
34 | CN[C@H]1C[C@@H]2O[C@](C)([C@H]1OC)n1c3ccccc3c3c4c(c5c6ccccc6n2c5c31)C(=O)N[C@H]4O |  | 8.22 |  |  | 
35 | CC[N+](C)(C)[C@H]1C[C@@H]2O[C@](C)([C@H]1OC)n1c3ccccc3c3c4c(c5c6ccccc6n2c5c31)C(=O)NC4 |  | 7.74 | 0.27 µM |  | 
36 | CO[C@H]1[C@@H](N(C)C(=O)c2ccccc2)C[C@@H]2O[C@@]1(C)n1c3ccccc3c3c4c(c5c6ccccc6n2c5c31)C(=O)N(Cc1ccccc1)C4 |  | ~4.00 | > 100 µM | < 4.00 | 
37 | CO[C@H]1[C@@H](N(C)OC(=O)C(C)(C)C)C[C@@H]2O[C@@]1(C)n1c3ccccc3c3c4c(c5c6ccccc6n2c5c31)C(=O)NC4=O |  | 5.28 | > 100 µM |  | 
38 | CO[C@H]1[C@@H](N(C)c2ccccc2)C[C@@H]2O[C@@]1(C)n1c3ccccc3c3c4c(c5c6ccccc6n2c5c31)C(=O)NC4 |  | 7.82 | 0.055 µM |  | 
39 | CO[C@H]1[C@@H](N(C)C(=O)c2ccc(C(=O)O)cc2)C[C@@H]2O[C@@]1(C)n1c3ccccc3c3c4c(c5c6ccccc6n2c5c31)C(=O)NC4 |  | 7.52 | 10 µM | 7.00 | 
40 | COC(=O)CN(C)[C@H]1C[C@@H]2O[C@](C)([C@H]1OC)n1c3ccccc3c3c4c(c5c6ccccc6n2c5c31)C(=O)NC4 |  | 6.36 | 3.2 µM |  | 

Reference: ChEMBL document CHEMBL1127758 (Bioorg Med Chem Lett, 1994)
